Measurements published in US20200131669A1, “CYCLIC PEPTIDE COMPOUND HAVING HIGH MEMBRANE PERMEABILITY, AND LIBRARY CONTAINING SAME” (Chugai Seiyaku Kabushiki Kaisha, priority 2017, published 2020).
Positions of bridges follow the written chain, without caps; N, C: chain ends. Non-standard residues stand in square brackets, D forms with d. Residues, ends and D or L forms follow the SMILES beside them. *: point of attachment. Phe(4-CF3) = N[C@@H](Cc1ccc(C(F)(F)F)cc1)C(=O)O; NMePhe(3-Cl) = CN[C@@H](Cc1cccc(Cl)c1)C(=O)O; Gly(NCH2CH2Ph) = O=C(O)CNCCc1ccccc1; Hyp = O=C(O)[C@@H]1C[C@@H](O)CN1; NMeF = CN[C@@H](Cc1ccccc1)C(=O)O; Butyl(3-Me,3-OH) = CC(C)(O)CC*; NMeD = CN[C@@H](CC(=O)O)C(=O)O; NMeL = CN[C@@H](CC(C)C)C(=O)O; dNMeL = CN[C@H](CC(C)C)C(=O)O; NMeNva = CCC[C@H](NC)C(=O)O; NMeV = CN[C@H](C(=O)O)C(C)C; NMeAbu = CC[C@H](NC)C(=O)O; NMeA = CN[C@@H](C)C(=O)O; Piperidide = C1CCN(*)CC1; Abu = CC[C@H](N)C(=O)O; Me2NCH2CH2 = CN(C)CC*; NPrGly = CCCNCC(=O)O; Sar = CNCC(=O)O; tBu = CC(C)(C)*

Assay: Caco-2 membrane permeability, improved method as used in the following Examples (96-well, 20 to 24 h preincubation)
Assay type: in vitro ADME
Details: human, Caco-2, Caco-2
Outline: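 Papp (cm/sec) was derived from LC/MS of basal samples collected 180 min after apical dosing in FaSSIF/HBSS pH 6.0 with 1% DMSO, against a basal HBSS pH 7.4 receiver containing 4% BSA. Three-week Caco-2 cultures were first preincubated with compound in DMEM+FaSSIF at 37 °C for 20–24 h.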

Structure (SMILES) | Papp A→B at 180 min [×10⁻⁶ cm/s]
CC(C)C[C@@H]1NC(=O)[C@H](Cc2ccccc2)N(C)C(=O)[C@@H](C(C)C)NC(=O)C[C@@H](C(=O)N2CCCCC2)NC(=O)[C@H](CC(C)C)N(C)C(=O)[C@H](Cc2cccc(Cl)c2)N(C)C(=O)[C@H](COCCC(C)(C)O)NC(=O)[C@H](CC(C)C)N(C)C(=O)CN(C)C(=O)[C@H]([C@@H](C)O)NC(=O)[C@H](C(C)C)N(C)C1=O [pd434] ([dV][NMeF]L[NMeV]T[Sar][NMeL]S(Butyl(3-Me,3-OH))[NMePhe(3-Cl)][NMeL]D-Piperidide; lactam N-11) | 1.7
CC[C@@H]1NC(=O)[C@H](Cc2ccccc2)N(C)C(=O)[C@H](CC(C)C)N(C)C(=O)[C@H](CC(C)C)NC(=O)[C@H](CC)N(C)C(=O)C[C@@H](C(=O)N2CCCCC2)NC(=O)[C@H](CC(C)C)N(C)C(=O)CN(C)C(=O)[C@H]([C@@H](C)O)NC(=O)CN(CCc2ccccc2)C(=O)[C@H](CC(C)C)N(C)C1=O [pd415] ([NMeAbu]L[NMeL][NMeF][Abu][NMeL][Gly(NCH2CH2Ph)]T[Sar][NMeL]D-Piperidide; lactam N-11) | 3.3
CC[C@H]1C(=O)N(C)[C@@H](Cc2ccccc2)C(=O)N[C@@H](C)C(=O)N(C)[C@@H](CC(C)C)C(=O)N(C)[C@@H](CC)C(=O)N[C@@H]([C@@H](C)O)C(=O)N(CCc2ccccc2)CC(=O)N(C)[C@@H](CC(C)C)C(=O)N[C@H](C(=O)N2CCCCC2)CC(=O)N(C)[C@@H](C(C)C)C(=O)N[C@@H](CC(C)C)C(=O)N1C [pd410] ([NMeV]L[NMeAbu][NMeF]A[NMeL][NMeAbu]T[Gly(NCH2CH2Ph)][NMeL]D-Piperidide; lactam N-11) | 6
CCC[C@H]1C(=O)N[C@@H](CC(C)C)C(=O)N(C)[C@@H](CC(C)C)C(=O)N[C@@H]([C@@H](C)O)C(=O)N2C[C@H](OCC)C[C@H]2C(=O)N(C)[C@@H](CC(C)C)C(=O)N[C@@H]([C@@H](C)CC)C(=O)N(C)[C@@H](CC(C)C)C(=O)N2CCC[C@H]2C(=O)N[C@H](C(=O)N2CCCCC2)CC(=O)N(C)[C@H](CC(C)C)C(=O)N1C [pd381] ([dNMeL][NMeNva]L[NMeL]T[Hyp](Et)[NMeL]I[NMeL]PD-Piperidide; lactam N-11) | 5.6
CCCN1CC(=O)N(C)[C@@H](CC(C)C)C(=O)N[C@@H](COC(C)(C)C)C(=O)N(C)[C@@H](Cc2ccccc2)C(=O)N(C)[C@@H](C(C)C)C(=O)N[C@H](C(=O)N2CCCCC2)CC(=O)N[C@H](C(C)C)C(=O)N(C)[C@@H](Cc2ccccc2)C(=O)N[C@@H](COCCN(C)C)C(=O)N(C)[C@@H](CC(C)C)C(=O)N[C@@H]([C@@H](C)O)C1=O [pd50] ([dV][NMeF]S(Me2NCH2CH2)[NMeL]T[NPrGly][NMeL]S(tBu)[NMeF][NMeV]D-Piperidide; lactam N-11) | 0.15

Same assay, conditions: human, Caco-2, Caco-2 (cm/sec)

Structure (SMILES) | Papp A→B at 180 min [×10⁻⁶ cm/s]
CC(C)C[C@H]1C(=O)N[C@@H](COC(C)(C)C)C(=O)N(C)[C@@H](Cc2ccccc2)C(=O)N(C)[C@@H](CC(C)C)C(=O)N(C)[C@H](C(=O)N2CCCCC2)CC(=O)N(C)[C@@H](C)C(=O)N(C)[C@@H](Cc2cccc(Cl)c2)C(=O)N[C@@H](C(C)C)C(=O)N(C)[C@@H](C(C)C)C(=O)N[C@@H]([C@@H](C)O)C(=O)N(C)CC(=O)N1C [pd169] ([NMeA][NMePhe(3-Cl)]V[NMeV]T[Sar][NMeL]S(tBu)[NMeF][NMeL][NMeD]-Piperidide; lactam N-11) | 3.8
CC(C)C[C@@H]1NC(=O)[C@H](CC(C)C)N(C)C(=O)[C@H](CC(C)C)N(C)C(=O)CN(C)C(=O)[C@H]([C@@H](C)O)NC(=O)[C@H](CC(C)C)N(C)C(=O)[C@H](CC(C)C)N(C)C(=O)[C@H](Cc2ccc(C(F)(F)F)cc2)NC(=O)[C@@H](C(C)C)NC(=O)C[C@@H](C(=O)N2CCCCC2)NC1=O [pd148] ([dV][Phe(4-CF3)][NMeL][NMeL]T[Sar][NMeL][NMeL]LD-Piperidide; lactam N-10) | 1.1
